Our source for the EC50, AC50 and IC50 values is ChEMBL document CHEMBL1201862, “PubChem BioAssay data set” (2004).

Each structure is given as a SMILES string. Active and inactive are the calls of the source.

Test [1] deals with Peroxisome proliferator-activated receptor gamma/Nuclear receptor coactivator 2 (Homo sapiens, UniProt P37231). Type of test: functional.
Test [2] addresses Peroxisome proliferator-activated receptor gamma/Nuclear receptor coactivator 1 (Homo sapiens, UniProt P37231). It counts as functional.
The target in test [3] is Peroxisome proliferator-activated receptor gamma/Nuclear receptor coactivator 3 (Homo sapiens, UniProt P37231). It counts as functional.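 Further: agonist potency for raising coactivator recruitment to the receptor.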
In the next test the target is T1, ORF 73 (Human herpesvirus 8, UniProt O40947).
T1 sequence (O40947 whole entry): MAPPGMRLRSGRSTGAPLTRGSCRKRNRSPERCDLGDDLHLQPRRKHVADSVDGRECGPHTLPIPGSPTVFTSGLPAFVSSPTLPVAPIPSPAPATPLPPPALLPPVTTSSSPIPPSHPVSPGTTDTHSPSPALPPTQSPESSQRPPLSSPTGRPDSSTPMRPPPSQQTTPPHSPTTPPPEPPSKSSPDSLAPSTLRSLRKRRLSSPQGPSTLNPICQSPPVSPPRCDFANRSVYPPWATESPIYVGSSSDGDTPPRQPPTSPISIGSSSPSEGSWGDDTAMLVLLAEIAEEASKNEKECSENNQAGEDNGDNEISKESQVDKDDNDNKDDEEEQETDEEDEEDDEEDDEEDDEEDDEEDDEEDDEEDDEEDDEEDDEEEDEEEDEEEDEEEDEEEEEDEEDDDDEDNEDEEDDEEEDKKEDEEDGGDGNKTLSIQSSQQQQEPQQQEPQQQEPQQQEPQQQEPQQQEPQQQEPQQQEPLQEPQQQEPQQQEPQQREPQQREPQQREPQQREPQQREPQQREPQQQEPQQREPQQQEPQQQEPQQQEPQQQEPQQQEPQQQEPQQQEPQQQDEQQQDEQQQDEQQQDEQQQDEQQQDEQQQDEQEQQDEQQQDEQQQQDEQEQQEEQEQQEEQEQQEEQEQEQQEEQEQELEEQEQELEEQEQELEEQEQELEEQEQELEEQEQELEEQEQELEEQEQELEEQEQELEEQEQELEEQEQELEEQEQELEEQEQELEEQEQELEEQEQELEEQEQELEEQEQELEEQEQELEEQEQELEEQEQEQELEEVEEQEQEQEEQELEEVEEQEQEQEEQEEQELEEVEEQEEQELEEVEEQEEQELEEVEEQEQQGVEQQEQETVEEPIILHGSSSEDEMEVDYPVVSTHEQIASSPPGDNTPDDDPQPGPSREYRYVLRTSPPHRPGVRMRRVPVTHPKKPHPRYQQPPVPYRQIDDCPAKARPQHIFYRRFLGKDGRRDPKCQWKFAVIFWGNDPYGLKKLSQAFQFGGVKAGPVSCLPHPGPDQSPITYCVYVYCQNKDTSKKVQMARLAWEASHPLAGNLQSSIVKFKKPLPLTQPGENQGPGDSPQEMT
As to the kind of experiment: inhibitors of C-LANA binding to LBS DNA, dose response, biochemical, fluorescence polarization, cherry-picked samples (AID 504725).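 Further: fluorescence polarization of a labeled DNA duplex reporting LANA DNA binding; potency is for inhibitors that block LANA binding to the DNA.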 Also noted: species or system Human gammaherpesvirus 8. (Polarisation of emitted light reports the rotation of a fluorescent probe.)

The target of another test is Genome polyprotein (dengue virus type 2, UniProt P29990). As to the kind of experiment: Dengue-2 NS5 methyltransferase inhibitors, primary screen, biochemical, confirmation dose response (AID 588689). Type of test: functional.
The target of test [4] is T2, RNA-binding protein pos-1 (Caenorhabditis elegans, UniProt G5EF15).
T2 sequence (G5EF15 whole entry): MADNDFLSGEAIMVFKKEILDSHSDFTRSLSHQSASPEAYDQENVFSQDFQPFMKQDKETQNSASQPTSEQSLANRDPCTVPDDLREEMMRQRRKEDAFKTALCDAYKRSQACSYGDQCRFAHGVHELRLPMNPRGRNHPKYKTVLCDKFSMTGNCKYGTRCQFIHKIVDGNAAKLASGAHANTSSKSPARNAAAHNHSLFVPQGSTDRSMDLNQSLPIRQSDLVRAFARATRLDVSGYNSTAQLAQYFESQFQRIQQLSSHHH
Description: inhibitors of POS-1/mex-3 RNA binding, dose response, biochemical, fluorescence polarization (AID 1964).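 Further: purified POS-1 fused to maltose binding protein made in E. coli; potency of compounds blocking POS-1 binding to fluorescent RNA.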

For test [5], the target named is T3, Rac GTPase-activating protein 1 (Homo sapiens, UniProt Q9H0H5).
T3 sequence (Q9H0H5 whole entry): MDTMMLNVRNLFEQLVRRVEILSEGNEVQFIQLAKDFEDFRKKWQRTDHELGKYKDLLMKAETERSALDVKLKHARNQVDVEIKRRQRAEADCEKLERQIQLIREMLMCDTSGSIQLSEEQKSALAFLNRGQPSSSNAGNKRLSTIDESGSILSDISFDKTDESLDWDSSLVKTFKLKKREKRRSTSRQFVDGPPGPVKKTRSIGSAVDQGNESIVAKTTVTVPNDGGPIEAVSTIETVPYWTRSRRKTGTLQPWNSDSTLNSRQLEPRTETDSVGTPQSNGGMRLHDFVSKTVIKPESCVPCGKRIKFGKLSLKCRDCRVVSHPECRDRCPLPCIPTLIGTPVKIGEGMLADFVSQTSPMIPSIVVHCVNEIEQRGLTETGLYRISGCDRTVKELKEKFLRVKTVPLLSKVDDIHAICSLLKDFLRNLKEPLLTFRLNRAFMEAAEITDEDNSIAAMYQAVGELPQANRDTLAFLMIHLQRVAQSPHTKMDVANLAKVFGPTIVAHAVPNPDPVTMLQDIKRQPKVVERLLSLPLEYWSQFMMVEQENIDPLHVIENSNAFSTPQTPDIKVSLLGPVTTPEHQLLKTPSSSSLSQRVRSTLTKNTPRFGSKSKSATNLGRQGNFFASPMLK
Description: MgcRacGAP GTPase-activating activity inhibitors, confirmation, biochemical, ADP Hunter fluorescence, primary and confirmatory (AID 624330). It counts as functional.

Test [6] has as its target T4, Zinc finger protein mex-5 (Caenorhabditis elegans, UniProt Q9XUB2).
T4 sequence (Q9XUB2 whole entry): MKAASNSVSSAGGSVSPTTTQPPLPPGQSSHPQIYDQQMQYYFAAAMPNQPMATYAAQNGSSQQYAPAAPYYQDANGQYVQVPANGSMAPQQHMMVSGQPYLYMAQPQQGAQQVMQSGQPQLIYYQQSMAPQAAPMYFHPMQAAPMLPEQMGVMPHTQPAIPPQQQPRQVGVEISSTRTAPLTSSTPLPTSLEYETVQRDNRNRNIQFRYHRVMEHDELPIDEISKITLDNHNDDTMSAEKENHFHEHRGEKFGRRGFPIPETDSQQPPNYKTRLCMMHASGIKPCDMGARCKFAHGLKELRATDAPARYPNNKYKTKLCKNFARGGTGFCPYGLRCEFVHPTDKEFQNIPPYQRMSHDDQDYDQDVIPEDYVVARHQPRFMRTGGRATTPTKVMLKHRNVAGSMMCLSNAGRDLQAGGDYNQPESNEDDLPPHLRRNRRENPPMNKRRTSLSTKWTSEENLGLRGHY
As to the kind of experiment: MEX-5/TCR-2 RNA interaction inhibitors, dose response, biochemical, C. elegans, fluorescence polarization (AID 1960).

Test [7] deals with Polyadenylate-binding protein 1 (Homo sapiens, UniProt P11940). Description: PABP inhibition in translation initiation, SAR follow-up (AID 435018). It counts as functional.
The target of test [8] is Eukaryotic translation initiation factor 4H (Homo sapiens, UniProt Q15056). As to the kind of experiment: eIF4H inhibition in translation initiation, SAR follow-up (AID 435011). It counts as functional.
A further test addresses T5, Protein skinhead-1 (Caenorhabditis elegans, UniProt P34707).
T5 sequence (P34707 whole entry): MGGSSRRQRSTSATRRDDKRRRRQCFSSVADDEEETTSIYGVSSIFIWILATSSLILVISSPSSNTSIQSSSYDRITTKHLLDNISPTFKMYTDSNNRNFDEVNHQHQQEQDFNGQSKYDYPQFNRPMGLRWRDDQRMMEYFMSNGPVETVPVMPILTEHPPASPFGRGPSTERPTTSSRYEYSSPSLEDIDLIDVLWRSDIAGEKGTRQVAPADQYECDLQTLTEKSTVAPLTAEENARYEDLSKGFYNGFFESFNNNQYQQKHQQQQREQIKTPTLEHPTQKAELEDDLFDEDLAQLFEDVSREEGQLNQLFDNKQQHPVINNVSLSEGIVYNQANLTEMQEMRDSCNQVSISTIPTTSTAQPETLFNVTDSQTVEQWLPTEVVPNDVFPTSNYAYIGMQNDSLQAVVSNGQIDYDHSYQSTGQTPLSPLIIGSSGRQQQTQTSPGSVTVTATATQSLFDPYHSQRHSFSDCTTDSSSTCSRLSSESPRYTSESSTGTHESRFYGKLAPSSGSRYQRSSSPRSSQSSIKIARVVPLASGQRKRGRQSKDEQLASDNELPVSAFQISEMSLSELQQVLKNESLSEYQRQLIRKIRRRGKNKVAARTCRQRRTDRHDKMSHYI
Type of test: functional.

The target in test [9] is T6, Oxysterols receptor LXR-beta (Homo sapiens, UniProt P55055).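 Further: Cell-based luminescence dose-response assay of agonist activity at LXR, run as a confirmatory counterscreen to a daf-12 agonist screen; HEK293 cells with Gal4-LXR fusion and GAL4-driven luciferase reporter; agonist potency from rising luciferase signal of a Gal4-LXR reporter.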
T6 sequence (P55055 whole entry): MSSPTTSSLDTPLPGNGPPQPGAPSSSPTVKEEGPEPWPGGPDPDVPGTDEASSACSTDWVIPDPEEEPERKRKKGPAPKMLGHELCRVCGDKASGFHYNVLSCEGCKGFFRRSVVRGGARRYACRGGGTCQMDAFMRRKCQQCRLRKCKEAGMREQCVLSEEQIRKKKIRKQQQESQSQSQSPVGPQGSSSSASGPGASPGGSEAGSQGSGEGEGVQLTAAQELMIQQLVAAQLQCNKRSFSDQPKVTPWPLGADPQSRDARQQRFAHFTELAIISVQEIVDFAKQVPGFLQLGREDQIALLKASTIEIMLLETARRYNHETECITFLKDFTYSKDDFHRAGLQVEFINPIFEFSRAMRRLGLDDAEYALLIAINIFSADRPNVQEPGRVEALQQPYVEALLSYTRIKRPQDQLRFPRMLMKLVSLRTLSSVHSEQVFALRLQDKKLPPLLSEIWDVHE
It counts as functional, cell-based.

The target in test [10] is DNA dC->dU-editing enzyme APOBEC-3G (Homo sapiens, UniProt Q9HC16). Description: Dose Response confirmation of small molecule APOBEC3G DNA Deaminase Inhibitors via a fluorescence-based single-stranded DNA deaminase assay. [Related pubchem assays (depositor defined):AID493012, AID493028]. It counts as functional.
For test [11], the target named is T7, Kappa-type opioid receptor (Homo sapiens, UniProt P41145). Type of test: functional.
Another test has as its target Beta-galactosidase (Escherichia coli, UniProt Q8VNN2). Type of test: functional.
Test [12] concerns the target T8, Microphthalmia-associated transcription factor (Homo sapiens, UniProt O75030).
T8 sequence (O75030 whole entry): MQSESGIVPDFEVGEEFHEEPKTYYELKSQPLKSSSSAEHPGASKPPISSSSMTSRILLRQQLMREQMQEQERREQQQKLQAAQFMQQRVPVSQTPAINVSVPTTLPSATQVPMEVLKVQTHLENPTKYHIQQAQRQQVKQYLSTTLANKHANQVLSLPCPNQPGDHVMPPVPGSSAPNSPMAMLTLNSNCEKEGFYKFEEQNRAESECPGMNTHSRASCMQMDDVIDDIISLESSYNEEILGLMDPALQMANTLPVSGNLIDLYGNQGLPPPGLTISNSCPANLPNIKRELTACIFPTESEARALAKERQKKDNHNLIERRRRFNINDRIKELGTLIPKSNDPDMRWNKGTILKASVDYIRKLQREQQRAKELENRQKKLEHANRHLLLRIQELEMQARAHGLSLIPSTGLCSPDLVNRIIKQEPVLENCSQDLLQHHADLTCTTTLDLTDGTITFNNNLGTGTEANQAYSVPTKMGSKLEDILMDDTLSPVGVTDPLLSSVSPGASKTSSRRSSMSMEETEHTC
Description: TRPM1 promoter luciferase signal decrease, dose response, MITF inhibitor project, cell-based, SK-MEL-5, cherry-picked, set 3 (AID 493073).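 Further: SK-MEL-5 melanoma cells with luciferase driven by the MITF target TRPM1 promoter.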 It counts as functional.

For test [13], the target named is T7, Kappa-type opioid receptor. It counts as functional. This is another data set of the same source.

Sequence of Peroxisome proliferator-activated receptor gamma/Nuclear receptor coactivator 3 (P37231 whole entry): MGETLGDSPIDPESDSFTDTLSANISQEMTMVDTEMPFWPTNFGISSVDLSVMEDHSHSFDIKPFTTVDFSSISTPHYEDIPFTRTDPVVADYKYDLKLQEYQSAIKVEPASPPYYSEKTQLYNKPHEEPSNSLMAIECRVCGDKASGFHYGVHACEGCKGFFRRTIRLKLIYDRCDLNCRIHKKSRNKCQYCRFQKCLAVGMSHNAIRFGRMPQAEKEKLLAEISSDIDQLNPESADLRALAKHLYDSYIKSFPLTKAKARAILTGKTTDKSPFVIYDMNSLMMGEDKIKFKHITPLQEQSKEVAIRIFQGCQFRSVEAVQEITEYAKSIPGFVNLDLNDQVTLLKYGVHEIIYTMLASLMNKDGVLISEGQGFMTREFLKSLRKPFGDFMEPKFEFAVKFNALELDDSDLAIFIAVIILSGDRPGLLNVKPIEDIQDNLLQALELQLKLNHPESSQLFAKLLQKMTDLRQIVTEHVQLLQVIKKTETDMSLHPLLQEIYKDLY
Sequence of Peroxisome proliferator-activated receptor gamma/Nuclear receptor coactivator 3 (Q9Y6Q9 whole entry, further chain): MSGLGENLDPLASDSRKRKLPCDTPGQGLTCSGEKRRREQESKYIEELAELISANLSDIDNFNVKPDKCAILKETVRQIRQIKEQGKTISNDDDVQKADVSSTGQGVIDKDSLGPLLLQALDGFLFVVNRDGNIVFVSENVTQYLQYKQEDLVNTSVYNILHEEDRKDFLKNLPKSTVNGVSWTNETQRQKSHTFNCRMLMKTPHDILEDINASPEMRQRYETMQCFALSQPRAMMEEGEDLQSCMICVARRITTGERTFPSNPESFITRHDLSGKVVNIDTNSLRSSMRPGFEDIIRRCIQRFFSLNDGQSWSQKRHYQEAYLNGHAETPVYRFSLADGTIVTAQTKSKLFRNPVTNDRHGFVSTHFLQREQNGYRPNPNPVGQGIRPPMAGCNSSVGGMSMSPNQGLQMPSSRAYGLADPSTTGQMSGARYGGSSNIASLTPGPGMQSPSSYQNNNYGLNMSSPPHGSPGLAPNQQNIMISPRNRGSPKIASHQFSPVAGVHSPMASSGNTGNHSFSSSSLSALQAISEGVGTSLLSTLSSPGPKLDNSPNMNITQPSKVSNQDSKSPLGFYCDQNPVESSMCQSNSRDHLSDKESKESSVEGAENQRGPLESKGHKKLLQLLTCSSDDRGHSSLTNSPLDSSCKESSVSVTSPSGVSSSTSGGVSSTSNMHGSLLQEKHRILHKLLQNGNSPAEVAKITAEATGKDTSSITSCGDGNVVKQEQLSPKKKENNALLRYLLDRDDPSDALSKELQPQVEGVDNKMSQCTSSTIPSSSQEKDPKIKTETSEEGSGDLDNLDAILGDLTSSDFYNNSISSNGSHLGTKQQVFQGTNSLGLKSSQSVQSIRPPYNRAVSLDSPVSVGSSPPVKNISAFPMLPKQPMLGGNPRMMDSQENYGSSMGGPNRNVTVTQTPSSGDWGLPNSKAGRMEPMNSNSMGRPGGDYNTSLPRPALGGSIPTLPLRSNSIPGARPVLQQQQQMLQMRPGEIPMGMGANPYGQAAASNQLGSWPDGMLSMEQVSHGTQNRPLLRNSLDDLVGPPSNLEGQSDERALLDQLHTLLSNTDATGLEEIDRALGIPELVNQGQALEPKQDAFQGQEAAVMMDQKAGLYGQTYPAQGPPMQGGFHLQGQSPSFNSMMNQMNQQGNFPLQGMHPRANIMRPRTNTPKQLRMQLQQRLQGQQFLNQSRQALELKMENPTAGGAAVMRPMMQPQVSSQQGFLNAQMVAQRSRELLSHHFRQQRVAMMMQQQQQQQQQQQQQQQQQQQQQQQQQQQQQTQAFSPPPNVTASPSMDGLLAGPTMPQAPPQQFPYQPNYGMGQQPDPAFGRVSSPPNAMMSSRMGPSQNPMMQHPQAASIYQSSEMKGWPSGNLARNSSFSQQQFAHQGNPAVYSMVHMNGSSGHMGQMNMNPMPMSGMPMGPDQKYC
Sequence of Peroxisome proliferator-activated receptor gamma/Nuclear receptor coactivator 2 (P37231 whole entry): as the sequence (P37231 whole entry) above
Sequence of Peroxisome proliferator-activated receptor gamma/Nuclear receptor coactivator 2 (Q15596 whole entry, further chain): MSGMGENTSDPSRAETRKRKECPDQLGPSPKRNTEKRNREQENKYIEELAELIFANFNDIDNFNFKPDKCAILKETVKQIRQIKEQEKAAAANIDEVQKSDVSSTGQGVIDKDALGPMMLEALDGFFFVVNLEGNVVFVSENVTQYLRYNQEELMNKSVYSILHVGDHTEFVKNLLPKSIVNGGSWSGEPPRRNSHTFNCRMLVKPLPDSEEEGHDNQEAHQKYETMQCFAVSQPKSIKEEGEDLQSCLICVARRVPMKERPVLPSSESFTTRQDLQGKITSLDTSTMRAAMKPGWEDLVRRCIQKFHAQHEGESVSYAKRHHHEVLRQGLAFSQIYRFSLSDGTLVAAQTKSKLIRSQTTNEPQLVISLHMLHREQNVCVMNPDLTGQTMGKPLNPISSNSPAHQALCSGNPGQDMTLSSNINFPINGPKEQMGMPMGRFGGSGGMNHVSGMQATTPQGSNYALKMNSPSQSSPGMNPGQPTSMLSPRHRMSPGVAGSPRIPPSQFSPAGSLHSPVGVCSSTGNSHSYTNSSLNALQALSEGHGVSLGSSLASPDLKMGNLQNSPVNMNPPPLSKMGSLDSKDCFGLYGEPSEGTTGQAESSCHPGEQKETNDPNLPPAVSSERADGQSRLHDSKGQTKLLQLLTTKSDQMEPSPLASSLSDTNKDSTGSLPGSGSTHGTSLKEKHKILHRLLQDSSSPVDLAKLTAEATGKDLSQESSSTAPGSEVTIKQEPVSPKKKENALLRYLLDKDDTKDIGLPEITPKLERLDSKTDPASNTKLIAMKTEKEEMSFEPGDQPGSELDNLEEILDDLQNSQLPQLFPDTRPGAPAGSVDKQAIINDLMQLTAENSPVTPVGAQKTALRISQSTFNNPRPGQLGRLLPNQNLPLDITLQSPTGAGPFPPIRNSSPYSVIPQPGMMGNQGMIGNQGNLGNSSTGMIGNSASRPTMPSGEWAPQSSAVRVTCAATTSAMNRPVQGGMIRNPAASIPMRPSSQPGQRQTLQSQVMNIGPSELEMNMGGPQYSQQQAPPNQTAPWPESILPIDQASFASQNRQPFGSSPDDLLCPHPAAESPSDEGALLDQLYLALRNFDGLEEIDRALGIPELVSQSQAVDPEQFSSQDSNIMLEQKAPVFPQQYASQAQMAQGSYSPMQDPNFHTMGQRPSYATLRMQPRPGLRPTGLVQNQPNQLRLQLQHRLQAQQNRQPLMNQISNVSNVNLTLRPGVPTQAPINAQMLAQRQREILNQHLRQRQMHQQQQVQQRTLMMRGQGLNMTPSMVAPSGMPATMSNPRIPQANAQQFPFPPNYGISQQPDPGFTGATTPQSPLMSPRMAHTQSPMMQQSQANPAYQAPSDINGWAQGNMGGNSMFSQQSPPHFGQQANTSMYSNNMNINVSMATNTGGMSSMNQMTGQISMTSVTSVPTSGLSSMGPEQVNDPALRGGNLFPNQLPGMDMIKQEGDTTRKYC
Sequence of Polyadenylate-binding protein 1 (P11940 whole entry): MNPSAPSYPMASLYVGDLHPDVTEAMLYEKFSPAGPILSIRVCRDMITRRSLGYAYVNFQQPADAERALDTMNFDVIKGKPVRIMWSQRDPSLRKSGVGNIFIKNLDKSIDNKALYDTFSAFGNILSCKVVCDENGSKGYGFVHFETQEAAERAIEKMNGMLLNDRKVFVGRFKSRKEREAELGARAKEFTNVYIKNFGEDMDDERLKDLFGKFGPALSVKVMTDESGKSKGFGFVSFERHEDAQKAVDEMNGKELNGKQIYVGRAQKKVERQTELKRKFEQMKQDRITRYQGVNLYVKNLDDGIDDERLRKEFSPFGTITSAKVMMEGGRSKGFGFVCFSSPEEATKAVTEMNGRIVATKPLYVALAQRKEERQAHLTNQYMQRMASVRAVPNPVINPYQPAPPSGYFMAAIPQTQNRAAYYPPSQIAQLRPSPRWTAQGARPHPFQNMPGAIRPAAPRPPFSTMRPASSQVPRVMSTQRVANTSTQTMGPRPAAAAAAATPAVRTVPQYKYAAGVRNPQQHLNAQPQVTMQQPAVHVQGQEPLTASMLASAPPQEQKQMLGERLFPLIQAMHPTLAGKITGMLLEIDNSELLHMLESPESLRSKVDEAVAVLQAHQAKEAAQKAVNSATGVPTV

In the case of `Cc1ccc(OCC(=O)NNC(=O)C(=O)NC(C)(C)C)cc1`, the EC50 in test [1], in [2] and in test [3] was > 79.4 µM (not active) each time.
With `O=C(O)c1ccc2c(c1)C(=O)/C(=C\c1ccco1)C2=O`, the AC50 – broadly, the concentration at which the activity in the assay is half-maximal – on ORF 73 was 133 µM (active). Besides, the IC50 (usually the concentration needed to halve the response being measured) at Genome polyprotein is 12.3 µM (active); in [5] it was 89.2 µM (active). In addition, the EC50 (commonly the concentration needed to bring the measured effect to its halfway point) in test [4] was > 300 µM (not active); in test [6], 32.1 µM (active).
`O=C(COc1ccc(C=NNC(=O)c2ccc(O)cc2)cc1)Nc1ccc([N+](=O)[O-])cc1`: the values for the IC50 in test [7] and in test [8] were > 100 µM (inactive) and 5.8 µM (active), respectively.
As to `O=C(c1cccs1)c1ccc(-c2cccs2)s1`, the IC50 on Protein skinhead-1 is 26.5 µM (active). Also, the EC50 was > 67.5 µM (inactive) in the test “cells”, 215 µM (active) in test [4], > 67.5 µM (inactive) in test [9] and > 300 µM (not active) in test [6].
For `COc1ccc(Cn2c(-c3ccc(C)cc3)nc3c(c(=O)c4ccccc4n3C)c2=O)cc1`, the EC50 in test [1], in test [2] and in [3] was > 79.4 µM (not active) in each case.
`CCOc1ccc(NC2=NN=C(c3cc(C)n(CC4CCCO4)c3C)CS2)cc1` (centres undefined): the EC50 in test [1], in [2] and in test [3] was > 79.4 µM (not active) throughout.
On to `CCN(CC)c1ccc(NC(=O)c2ccccn2)cc1S(=O)(=O)Nc1ccccc1OC`, for which, in test [10], the IC50 is 69.2 µM (active).
With `CCn1c(SCc2nc(O)c3c(C)c(C(=O)O)sc3n2)nc2ccccc21`, on ORF 73, the AC50 was 32.2 µM (active).
In the case of `CC1=C/C(=N\NC(=S)Nc2cccnc2)CC(C)(C)C1`, the IC50 was 9.46 µM (active) in test [11] and > 32 µM in test [13]. In addition, at Beta-galactosidase, the EC50 was > 31.5 µM (inactive). In addition, the AC50 in [12] was 11 µM (active).
As to `COc1ccc(Cl)cc1NC(=O)COC(=O)c1ccc(NC(N)=O)cc1`, the IC50 in [7] and in test [8] was > 100 µM (inactive) each time.
